Assay results from patent publication US5945404A, “21-Substituted steroid compound” (priority 1993, dated 1999).

Columns and labels:
[1] = test system: granuloma; assay: Inhibitory Effects on Granuloma Growth (Paper Disk Method); format: in vivo, male Sprague-Dawley rats; conditions: ointment 0.1%, 50 mg once a day, 7 days; for Weight of granuloma, per cent of change of the controls: rat, paper disk
Method: (§1) Ointment to be tested was prepared usign white soft paraffin as the base and containing dexamethasone at 0.1% concentration.
Groups of 5 male Sprague-Dawley rats each weighing 150-170 g were used. Under ether anesthesia, the dorsum of animals was closely clipped, and medianly incised. After each one pre-weighed paper disk (8-mm diameter, 1-mm thick, weighing about 30 mg; Toyo-Roshi filter paper) was inserted subcutaneously into both sides of the dorsal incision, the incision was sutured. In order to prevent bacterial infection, penicillin G potassium salt (2,000 units) per rat was intramascularly injected after the surgery. Base or ointment to be tested (50 mg each) was rubbed carefully into the skin over the paper disk inserted site, for 30 seconds once a day for the duration of 7 days. Rats were slipped plastic cangs on to prevent them from licking the drug applied sites. On the 8th day of the test, rats were sacrificed under ether anesthesia, and granulomas were carefully excised. Granulomas were dried at 40° C. for 24 h, and their dry weights were recorded.
Inhibitory effects of dexamethasone derivatives on the weight increase of granuloma of experimental animals as compared with those of control animals are shown as per cent of inhibition ov er the control in Table 1. Figures wihth asterisks in the table indicate signfiicant difference. The same will be applied to the following other tables.

[2] = Effects of 7-day Ointment Rubbing on Organ Weights; format: in vivo, male Sprague-Dawley rats; conditions: Table 7, 7-day rubbing, 100 mg ointment once daily
Method: as §1
Groups of 5 male Sprague-Dawley rats each weighing 150-170 g were used. Under ether anesthesia, the dorsum of animals were closely clipped, and test drug (100 mg) was carefully rubbed in the clipped dorsal area for 30 seconds. Rats were slipped on plastic cang to prevent them from licking the drug-applied area. After the drug rubbing once daily for 7 days, on the 8th day rats were anesthetized with ether. Blood samples were collected, and thymus, spleen, and adrenal were excised and measured their wet weights. Furthermore, leukocyte number was counted with the blood samples collected. Results were expressed as the per cent of change of body weight on the 8th day as compared with that on the 1st day of rubbing. Similarly, the per cent of change in weights of thymus, spleen and adrenal on the 8th day as compared with that of the control animlas were shown.

[3] = test system: croton oil-induced ear edema; assay: Inhibitory Effects on Croton oil-induced Ear Lobe Edema; format: in vivo, male ddY mice; conditions: Table 5, ointment 20 mg, mouse ear lobe
Method: as §1
Groups of 10 male ddY mice each weighing about 25 g were used. Ointment to be tested (20 mg) was rubbed in the right-side ear lobe, and, 30 min later, a drop of 4 % croton oil dissolved in either was applied to it. Thirty minute after that treatment, mice were sacrificed. Ear lobes on both sides were punched out in the size of 5-mm diameter, and weighed. Results were expressed by calculating the per cent of weight change of the right edema ear as compared with that of the untreated left ear, and compared with that of the control.

With `C[C@@H]1C[C@H]2[C@@H]3CCC4=CC(=O)C=C[C@]4(C)[C@@]3(F)[C@@H](O)C[C@]2(C)[C@@]1(O)C(=O)CO[C@H]1O[C@H](CO)[C@@H](O)[C@H](O)[C@@H]1O` [Compound 25α, mannosyldexamethasone] the change in vivo at 0.1 %, 50 mg ([1]; Rattus norvegicus, topical, 168 h, read-out: Weight of granuloma, per cent of change of the controls, rat, paper disk) was -18 ± 4.8%, the “Adrenal weight, per cent of change vs control animals” value [2] was -24.4 ± 3.4 per cent and the “Body weight, per cent of change on the 8th day vs 1st day” value [2] was 16.1 ± 1.7 per cent. The “Spleen weight, per cent of change vs control animals” value [2] was -18.2 ± 2.2 per cent, the “Thymus weight, per cent of change vs control animals” value [2] was -32.6 ± 7.4 per cent and the Leukocyte count ([2]; normal animal 0.0) was -0.7 ± 9.0.
For `CC(=O)OC[C@H]1O[C@H](OCC(=O)[C@@]2(O)[C@H](C)C[C@H]3[C@@H]4CCC5=CC(=O)C=C[C@]5(C)[C@@]4(F)[C@@H](O)C[C@@]32C)[C@@H](OC(C)=O)[C@@H](OC(C)=O)[C@@H]1OC(C)=O` [Compound 29, mannosyldexamethasone (per Ac derivative)], the “Weight of granuloma, per cent of change of the controls” value [1] was -35.7 ± 5.6 per cent and the “Percent of inhibition of ear edema” value [3] was 22.1 ± 4.7%.
For `CC(=O)N[C@H]1C(OCC(=O)[C@@]2(O)[C@H](C)C[C@H]3[C@@H]4CCC5=CC(=O)C=C[C@]5(C)[C@@]4(F)[C@@H](O)C[C@@]32C)O[C@H](CO)[C@H](O)[C@@H]1O` (stereo partly shown) [Compound 44', N-acetylgalactosaminyldexamethasone], the “Weight of granuloma, per cent of change of the controls” value ([1]; listed as 44') was 3.3 ± 4.7 per cent and the “Percent of inhibition of ear edema” value ([3]; listed as 44') was 7.9 ± 7.2%.
For `CC(=O)N[C@H]1C(OCC(=O)[C@@]2(O)[C@H](C)C[C@H]3[C@@H]4CCC5=CC(=O)C=C[C@]5(C)[C@@]4(F)[C@@H](O)C[C@@]32C)O[C@H](CO)[C@H](O)[C@@H]1O` (stereo partly shown) [Compound 45', N-acetylgalactosaminyldexamethasone], the “Weight of granuloma, per cent of change of the controls” value ([1]; listed as 45') was -11.8 ± 10.1 per cent and the “Percent of inhibition of ear edema” value ([3]; listed as 45') was 21.0 ± 6.4%.
In the case of `CC(=O)OC1C(C)OC(OCC(=O)C2(O)C(C)CC3C4CCC5=CC(=O)C=CC5(C)C4(F)C(O)CC32C)C(OC(C)=O)C1OC(C)=O` (stereo not drawn) [Compound 74β, fucosyldexamethasone], the “Weight of granuloma, per cent of change of the controls” value [1] is reported as 1.6 ± 16.2 per cent and the “Percent of inhibition of ear edema” value [3] is reported as 14.1 ± 4.5%.
For `CC1OC(OCC(=O)C2(O)C(C)CC3C4CCC5=CC(=O)C=CC5(C)C4(F)C(O)CC32C)C(O)C(O)C1O` (stereo not drawn) [Compound 75β, β-fucosyldexamethasone], the “Weight of granuloma, per cent of change of the controls” value [1] was -10.0 ± 8.8 per cent and the “Percent of inhibition of ear edema” value [3] was 22.0 ± 4.7%.
